Our source for the PA-7 (MIC) and EC-1 (MIC) values is US8846933B2, “N-link hydroxamic acid derivatives useful as antibacterial agents” (Pfizer Inc., priority 2009, dated 2014).

Where only a bound is given, the exact number is not on record here.

Assay [1] has as its system Pseudomonas aeruginosa UI-18: Wild-type (PA-7). Nature of the assay: MIC determination (CLSI), strain PA-7. The class given is cell-based. Particulars: strain PA-7; unit assumed. The procedure, abridged: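 MIC determined by broth dilution per CLSI M7-A7 guidelines with M100-S18 interpretive standards. Test organism: wild-type Pseudomonas aeruginosa UI-18, designated PA-7.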

Assay [2] has as its system Escherichia coli EC-1: VOGEL, mouse virulent. Nature of the assay: MIC determination (CLSI), strain EC-1. Type of assay: cell-based. Particulars: strain EC-1; unit assumed. The procedure, abridged: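 The mouse-virulent VOGEL isolate of E. coli, EC-1, served as test organism. Minimum inhibitory concentration was measured by CLSI dilution methodology (M7-A7; M100-S18 standards).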

`C[C@@](CCn1ccc(-c2ccc(-c3cocn3)cc2)cc1=O)(C(=O)NO)S(C)(=O)=O` [Example 389, (2R)-N-hydroxy-2-methyl-2-(methylsulfonyl)-4-{4-[4-(1,3-oxazol-4-yl)phenyl]-2-oxopyridin-1(2H)-yl}butanamide] returned a PA-7 (MIC) in assay [1] of 1 µg/mL. In addition, in assay [2], the EC-1 (MIC) came to 1 µg/mL.

Consider `CC(C)Oc1ccc(-c2ccn(CC[C@](C)(C(=O)NO)S(C)(=O)=O)c(=O)c2)cc1` [Example 390, (2R)-N-hydroxy-4-[4-(4-isopropoxyphenyl)-2-oxopyridin-1(2H)-yl]-2-methyl-2-(methylsulfonyl)butanamide], for which the PA-7 (MIC) in assay [1] turned out to be 0.5 µg/mL. Also, the EC-1 (MIC) in assay [2] turned out to be 0.25 µg/mL.

On to `C[C@@](CCn1ccc(-c2ccc(OC(F)(F)F)cc2)cc1=O)(C(=O)NO)S(C)(=O)=O` [Example 391, (2R)-N-hydroxy-2-methyl-2-(methylsulfonyl)-4-{2-oxo-4-[4-(trifluoromethoxy)phenyl]pyridin-1(2H)-yl}butanamide], for which the PA-7 (MIC) in assay [1] was 0.5 µg/mL. For the same compound, in assay [2], the EC-1 (MIC) turned out to be 0.25 µg/mL.

`C[C@@](CCn1ccc(-c2cc(F)ccc2Cl)cc1=O)(C(=O)NO)S(C)(=O)=O` [Example 392, (2R)-4-[4-(2-chloro-5-fluorophenyl)-2-oxopyridin-1(2H)-yl]-N-hydroxy-2-methyl-2-(methylsulfonyl)butanamide]: the PA-7 (MIC) in assay [1] amounted to 8 µg/mL. Also, the EC-1 (MIC) in assay [2] turned out to be 16 µg/mL.

Regarding `COc1ccc(-c2ccn(CC[C@](C)(C(=O)NO)S(C)(=O)=O)c(=O)c2C)c(F)c1` [Example 393, (2R)-4-[4-(2-fluoro-4-methoxyphenyl)-3-methyl-2-oxopyridin-1(2H)-yl]-N-hydroxy-2-methyl-2-(methylsulfonyl)butanamide], in assay [1], the PA-7 (MIC) is 1 µg/mL. In assay [2], the EC-1 (MIC) was determined as 0.5 µg/mL.

As for `Cc1c(-c2ccc(Cl)cc2F)ccn(CC[C@](C)(C(=O)NO)S(C)(=O)=O)c1=O` [Example 394, (2R)-4-[4-(4-chloro-2-fluorophenyl)-3-methyl-2-oxopyridin-1(2H)-yl]-N-hydroxy-2-methyl-2-(methylsulfonyl)butanamide], the PA-7 (MIC) in assay [1] is 1 µg/mL. The compound further registered an EC-1 (MIC) in assay [2] of 1 µg/mL.

Turning to `Cc1c(-c2ccc(F)cc2)ccn(CC[C@](C)(C(=O)NO)S(C)(=O)=O)c1=O` [Example 395, (2R)-4-[4-(4-fluorophenyl)-3-methyl-2-oxopyridin-1(2H)-yl]-N-hydroxy-2-methyl-2-(methylsulfonyl)butanamide], the PA-7 (MIC) in assay [1] stood at 2 µg/mL. Besides, in assay [2], the EC-1 (MIC) came to 1 µg/mL.

In assay [1], `Cc1c(-c2ccc(Cl)cc2)ccn(CC[C@](C)(C(=O)NO)S(C)(=O)=O)c1=O` [Example 396, (2R)-4-[4-(4-chlorophenyl)-3-methyl-2-oxopyridin-1(2H)-yl]-N-hydroxy-2-methyl-2-(methylsulfonyl)butanamide] displayed a PA-7 (MIC) of 0.5 µg/mL. This compound also came in with an EC-1 (MIC) in assay [2] of 0.25 µg/mL.

For the compound `COc1ccc(-c2ccn(CC[C@](C)(C(=O)NO)S(C)(=O)=O)c(=O)c2C)cc1` [Example 397, (2R)-N-hydroxy-4-[4-(4-methoxyphenyl)-3-methyl-2-oxopyridin-1(2H)-yl]-2-methyl-2-(methylsulfonyl)butanamide], the PA-7 (MIC) in assay [1] worked out at 1 µg/mL. In assay [2], this compound displayed an EC-1 (MIC) of 0.25 µg/mL.

In turn, `Cc1c(-c2ccc(C#N)cc2)ccn(CC[C@](C)(C(=O)NO)S(C)(=O)=O)c1=O` [Example 398, (2R)-4-[4-(4-cyanophenyl)-3-methyl-2-oxopyridin-1(2H)-yl]-N-hydroxy-2-methyl-2-(methylsulfonyl)butanamide] registered a PA-7 (MIC) in assay [1] of 2 µg/mL. Moreover, in assay [2], the EC-1 (MIC) turned out to be 4 µg/mL.

As to `Cc1c(-c2ccc(OC(F)F)cc2)ccn(CC[C@](C)(C(=O)NO)S(C)(=O)=O)c1=O` [Example 399, (2R)-4-{4-[4-(difluoromethoxy)phenyl]-3-methyl-2-oxopyridin-1(2H)-yl}-N-hydroxy-2-methyl-2-(methylsulfonyl)butanamide], the PA-7 (MIC) in assay [1] was found to be 1 µg/mL. For the same compound, the EC-1 (MIC) in assay [2] was 0.5 µg/mL.

In assay [1], `C[C@@](CCn1ccc(-c2ccc(-c3ccncn3)cc2)cc1=O)(C(=O)NO)S(C)(=O)=O` [Example 400, (2R)-N-hydroxy-2-methyl-2-(methylsulfonyl)-4-[2-oxo-4-(4-pyrimidin-4-ylphenyl)pyridin-1(2H)-yl]butanamide] registered a PA-7 (MIC) of 2 µg/mL. Also, the EC-1 (MIC) in assay [2] was 1 µg/mL.

In turn, `C[C@@](CCn1ccc(-c2ccc(-n3ncc[n+]3[O-])cc2)cc1=O)(C(=O)NO)S(C)(=O)=O` [Example 401, (2R)-N-hydroxy-2-methyl-2-(methylsulfonyl)-4-{4-[4-(1-oxido-2H-1,2,3-triazol-2-yl)phenyl]-2-oxopyridin-1(2H)-yl}butanamide] came in with a PA-7 (MIC) in assay [1] of 8 µg/mL. Further, in assay [2], the EC-1 (MIC) came to 8 µg/mL.

For the compound `C[C@@](CCn1ccc(-c2ccc(-c3ccncc3)cc2)cc1=O)(C(=O)NO)S(C)(=O)=O` [Example 402, (2R)-N-hydroxy-2-methyl-2-(methylsulfonyl)-4-[2-oxo-4-(4-pyridin-4-ylphenyl)pyridin-1(2H)-yl]butanamide], the PA-7 (MIC) in assay [1] came out at 2 µg/mL. The EC-1 (MIC) in assay [2] came to 0.5 µg/mL.

The compound `COCCOCCOc1ccc(-c2ccn(CC[C@](C)(C(=O)NO)S(C)(=O)=O)c(=O)c2)cc1` [Example 403, (2R)-N-hydroxy-4-[4-{4-[2-(2-methoxyethoxy)ethoxy]phenyl}-2-oxopyridin-1(2H)-yl]-2-methyl-2-(methylsulfonyl)butanamide] showed a PA-7 (MIC) in assay [1] of 4 µg/mL. The EC-1 (MIC) in assay [2] is 1 µg/mL.

Turning to `CCOc1ncc(-c2ccn(CC[C@](C)(C(=O)NO)S(C)(=O)=O)c(=O)c2)cn1` [Example 404, (2R)-4-[4-(2-ethoxypyrimidin-5-yl)-2-oxopyridin-1(2H)-yl]-N-hydroxy-2-methyl-2-(methylsulfonyl)butanamide], the PA-7 (MIC) in assay [1] is more than 64 µg/mL. For the same compound, the EC-1 (MIC) in assay [2] was more than 64 µg/mL.

`C[C@@](CCn1ccc(-c2ccc(-c3cscn3)cc2)cc1=O)(C(=O)NO)S(C)(=O)=O` [Example 405, (2R)-N-hydroxy-2-methyl-2-(methylsulfonyl)-4-{2-oxo-4-[4-(1,3-thiazol-4-yl)phenyl]pyridin-1(2H)-yl}butanamide]: the PA-7 (MIC) in assay [1] is 1 µg/mL. Besides, in assay [2], the EC-1 (MIC) turned out to be 0.125 µg/mL.

In assay [1], `C[C@@](CCn1ccc(-c2ccc(-c3cncs3)cc2)cc1=O)(C(=O)NO)S(C)(=O)=O` [Example 406, (2R)-N-hydroxy-2-methyl-2-(methylsulfonyl)-4-{2-oxo-4-[4-(1,3-thiazol-5-yl)phenyl]pyridin-1(2H)-yl}butanamide] gave a PA-7 (MIC) of 0.5 µg/mL. Also, the EC-1 (MIC) in assay [2] was 0.25 µg/mL.

For `C[C@@](CCn1ccc(-c2ccc(-n3ncc(O)n3)cc2)cc1=O)(C(=O)NO)S(C)(=O)=O` [Example 407, (2R)-N-hydroxy-4-{4-[4-(4-hydroxy-2H-1,2,3-triazol-2-yl)phenyl]-2-oxopyridin-1(2H)-yl}-2-methyl-2-(methylsulfonyl)butanamide], in assay [1], the PA-7 (MIC) came out at 32 µg/mL. This compound yielded an EC-1 (MIC) in assay [2] of 16 µg/mL.

As for `C[C@@](CCn1ccc(-c2ccc(-c3cc(CO)no3)cc2)cc1=O)(C(=O)NO)S(C)(=O)=O` [Example 408, (2R)-N-hydroxy-4-[4-{4-[3-(hydroxymethyl)isoxazol-5-yl]phenyl}-2-oxopyridin-1(2H)-yl]-2-methyl-2-(methylsulfonyl)butanamide], in assay [1], the PA-7 (MIC) is 8 µg/mL. In assay [2], the EC-1 (MIC) is 8 µg/mL.

In assay [1], `CN(C)c1ncc(-c2ccc(-c3ccn(CC[C@](C)(C(=O)NO)S(C)(=O)=O)c(=O)c3)cc2)cn1` [Example 409, (2R)-4-[4-{4-[2-(dimethylamino)pyrimidin-5-yl]phenyl}-2-oxopyridin-1(2H)-yl]-N-hydroxy-2-methyl-2-(methylsulfonyl)butanamide] displayed a PA-7 (MIC) of 2 µg/mL. Also, in assay [2], the EC-1 (MIC) was determined as 0.5 µg/mL.

In turn, `COc1ncc(-c2ccc(-c3ccn(CC[C@](C)(C(=O)NO)S(C)(=O)=O)c(=O)c3)cc2)cn1` [Example 410, (2R)-N-hydroxy-4-{4-[4-(2-methoxypyrimidin-5-yl)phenyl]-2-oxopyridin-1(2H)-yl}-2-methyl-2-(methylsulfonyl)butanamide] had a PA-7 (MIC) in assay [1] of 1 µg/mL. In assay [2], this compound displayed an EC-1 (MIC) of 0.5 µg/mL.

Compound `C[C@@](CCn1ccc(-c2ccc(-c3ccno3)cc2)cc1=O)(C(=O)NO)S(C)(=O)=O` [Example 411, (2R)-N-hydroxy-4-[4-(4-isoxazol-5-ylphenyl)-2-oxopyridin-1(2H)-yl]-2-methyl-2-(methylsulfonyl)butanamide] showed a PA-7 (MIC) in assay [1] of 0.5 µg/mL. In assay [2], the EC-1 (MIC) stood at 0.5 µg/mL.

As to `Cc1c(-c2ccc(C#N)cc2F)ccn(CC[C@](C)(C(=O)NO)S(C)(=O)=O)c1=O` [Example 412, (2R)-4-[4-(4-cyano-2-fluorophenyl)-3-methyl-2-oxopyridin-1(2H)-yl]-N-hydroxy-2-methyl-2-(methylsulfonyl)butanamide], in assay [1], the PA-7 (MIC) amounted to 4 µg/mL. In assay [2], this compound showed an EC-1 (MIC) of 8 µg/mL.

Regarding `Cc1c(-c2cccc(Cl)c2F)ccn(CC[C@](C)(C(=O)NO)S(C)(=O)=O)c1=O` [Example 413, (2R)-4-[4-(3-chloro-2-fluorophenyl)-3-methyl-2-oxopyridin-1(2H)-yl]-N-hydroxy-2-methyl-2-(methylsulfonyl)butanamide], the PA-7 (MIC) in assay [1] is 2 µg/mL. Also, the EC-1 (MIC) in assay [2] amounted to 2 µg/mL.

`Cc1c(-c2cccc(Cl)c2Cl)ccn(CC[C@](C)(C(=O)NO)S(C)(=O)=O)c1=O` [Example 414, (2R)-4-[4-(2,3-dichlorophenyl)-3-methyl-2-oxopyridin-1(2H)-yl]-N-hydroxy-2-methyl-2-(methylsulfonyl)butanamide] came in with a PA-7 (MIC) in assay [1] of 8 µg/mL. The compound also returned an EC-1 (MIC) in assay [2] of 2 µg/mL.

As to `C[C@@](CCn1ccc(-c2ccc(-c3ccc(C#N)nc3)cc2)cc1=O)(C(=O)NO)S(C)(=O)=O` [Example 415], the PA-7 (MIC) in assay [1] turned out to be 2 µg/mL. In assay [2], the EC-1 (MIC) is 1 µg/mL.
